Reference: US20070135515A1, “Method for producing sorbicillactone a” (priority 2004, published 2007)

System: L5178Y-mouse lymphoma cells (ATCC CRL 1722)
Test: Apoptosis detection (Cell Death Detection ELISA plus)
Format: cell-based
Conditions: for MW ± SD (OD) / % of the control (negative): 4 hours incubation; for MW ± SD (OD): 405 nm; for % of the control (negative): negative control = 100%
Description: Material: RPMI1640-medium, Hepes buffered, was obtained from Sigma-Aldrich (Taufkirchen, Germany), foetal calf serum (FCS) from Gibco (Karlsruhe, Germany), and Cell Death Detection ELISA plus from Roche (Mannheim, Germany, Cat. No. 1774425). Sorbicillactone A of the batch: 2208/2a was used.
Incubation and preparation of the cells: The L5178Y-mouse lymphoma cells (ATCC CRL 1722)) were counted, and adjusted to a number of cells of 10^4 cells/mL. The sorbicillactone-A- and dihydrosorbicillactone-A-stock solution (10 mg/mL in DMSO) was diluted with medium (RPMI/Hepes with 10% FCS) to concentrations of 60, 20, and 6 μg/mL. In a 96-well-culture plate, 100 μl cell suspension (˜10^3 cells) were each pipetted to each of the 100 μl of the different dihydrosorbicillactone-A- and sorbicillactone-A-solutions. RPMI1640-medium without dihydrosorbicillactone and sorbicillactone A was used as a negative control. The final concentrations were 30, 10, and 3 μg/mL sorbicillactone A and dihydrosorbicillactone A. Four parallel settings of each sample were analysed. The cells were incubated for 4 hours at 37° C. After the incubation, the culture plate was centrifuged at […] (˜1200 rpm) for 10 min at room temperature. The supernatant was carefully pipetted off, and the cells were each overlayered with 200 μl lysis-buffer (Roche-Kit). Then, the cells were lysed for 30 min at room temperature. After the lysis, the culture plate was again centrifuged at 200×g (˜1200 rpm) for 10 min at room temperature.
ELISA: Two strips with eight wells each were taken from the streptavidin-ELISA-plate of the Roche-kit. 20 μl of the supernatant of a cell-lysis (see above) were added into each well. In doing so, the samples with 30 or 10 μg/mL of sorbicillactone A and dihydrosorbicillactone A were loaded as 4-fold, and all other as duplicate determinations. In addition to these sample, a positive control (DNA-histone-complex) was loaded. Then, 80 μl of immune reagent were added into each well. This solution consisted of incubation buffer, anti-histone-biotin, and anti-DNA-peroxidase. The incubation buffer was used as a blank value. The ELISA-plate was incubated for 2 hours in a shaking incubator at room temperature. Them the supernatants were carefully removed, and the wells were each washed 3× with 250 μl of the incubation buffer. After the washing, 100 μl of ABTS-solution were added into each “well”. Subsequently, the cells were incubated for 30 min in the dark at room temperature. The measurement took place in a multiscan at an emission wavelength of 405 nm.

C/C=C/C=C/C(O)=C1/C(=O)C(C)=C(O)[C@@]2(C)OC(=O)[C@@](C)(NC(=O)/C=C/C(=O)O)[C@@H]12 [sorbicillactone A]
MW ± SD (OD) (3 μg/mL): 0.062 ± 0.004 OD | % of the control (negative) (3 μg/mL): 91.2% | increase of apoptosis-cells (3 μg/mL, 4 hours of incubation): did not result in an increase of apoptosis-cells | MW ± SD (OD) (10 μg/mL): 0.193 ± 0.010 OD | % of the control (negative) (10 μg/mL): 283.8% | MW ± SD (OD) (30 μg/mL): 0.219 ± 0.024 OD | % of the control (negative) (30 μg/mL): 322.1% | induction of apoptosis (10 and 30 μg/mL, 4 hours of incubation): induces apoptosis
